Laboratory results taken from US20240239741A1, “META-ESTER AROMATIC DIAMINES, METHOD FOR PRODUCING SAME, AND POLYIMIDE HAVING SAID META-ESTER AROMATIC DIAMINES AS RAW MATERIAL” (SEIKA CORPORATION, priority 2021, published 2024).
Like-named read-outs stand apart in the source and are kept apart here.

Test: Solubility of Diamine in various kinds of solvents
Type: physicochemical
Details: for solubility: organic solvent or mixture, thermodynamic from solid, Sample 30 mg/solvent 2 mL
Description: Melting points and solubilities in various kinds of solvents of the diamines obtained in the above-described Examples and Comparative Examples are shown in Table 1 below. In the following Table 1, the evaluation +++ indicates soluble at room temperature, the evaluation ++ indicates soluble by heating, the evaluation + indicates half-soluble by heating, and the evaluation − indicates insoluble in solvent.
Sample 30 mg/solvent 2 mL, the evaluation +++ indicates soluble at room temperature, the evaluation ++ indicates soluble by heating, the evaluation + indicates half-soluble by heating, and the evaluation − indicates insoluble.

[1] = MC (methyl cellosolve), MC (methyl cello solve), read-out: Solubility in MC
[2] = Acetone, read-out: Solubility in Acetone
[3] = Acetonitrile, read-out: Solubility in Acetonitrile
[4] = Chloroform, read-out: Solubility in Chloroform
[5] = DMF (N,N-dimethylformamide), read-out: Solubility in DMF
[6] = DMSO (dimethylsulfoxide), read-out: Solubility in DMSO
[7] = Ethyl acetate, read-out: Solubility in Ethyl acetate
[8] = Isopropanol, read-out: Solubility in Isopropanol
[9] = Methanol, read-out: Solubility in Methanol
[10] = THF, read-out: Solubility in THF
[11] = Toluene, read-out: Solubility in Toluene
[12] = m-cresol, read-out: Solubility in m-cresol

Work on `Cc1cc(OC(=O)c2cccc(N)c2)ccc1OC(=O)c1cccc(N)c1` [Example 6, 1-methyl-2,5-bis(3-aminobenzoyloxy)benzene] yielded a solubility [1] greater than 15 mg/mL, a solubility [2] greater than 15 mg/mL and a solubility [3] greater than 15 mg/mL. It also gave a solubility [4] greater than 15 mg/mL, a solubility [5] greater than 15 mg/mL and a solubility [6] greater than 15 mg/mL. It also gave a solubility [7] greater than 15 mg/mL, a solubility [8] of less than 15 mg/mL and a solubility [9] of less than 15 mg/mL. The solubility [10] was greater than 15 mg/mL, the solubility [11] was less than 15 mg/mL and the solubility [12] was greater than 15 mg/mL.

In the case of `Nc1cccc(C(=O)Oc2ccc(C(c3ccc(OC(=O)c4cccc(N)c4)cc3)(C(F)(F)F)C(F)(F)F)cc2)c1` [Example 2, 2,2′-bis[4-(3-aminobenzoyloxy)phenyl]hexafluoropropane], the “Solubility in the various kinds of solvents (in words)” value (“Solubility in the various kinds” below) is reported as “easily dissolved in various solvents”, the solubility [1] is reported as greater than 15 mg/mL and the solubility [2] is reported as greater than 15 mg/mL. The solubility [3] was greater than 15 mg/mL, the solubility [4] was less than 15 mg/mL and the solubility [5] was greater than 15 mg/mL. For the same compound, the solubility [6] was greater than 15 mg/mL, the solubility [7] was greater than 15 mg/mL and the solubility [8] was less than 15 mg/mL. It also gave a solubility [9] greater than 15 mg/mL, a solubility [10] greater than 15 mg/mL and a solubility [11] of less than 15 mg/mL. For the same compound, the solubility [12] was greater than 15 mg/mL.

With `Cc1cc(OC(=O)c2ccc(N)cc2)ccc1OC(=O)c1ccc(N)cc1` [Com. Ex. 2, 2,5-bis(4-aminobenzoyloxy)toluene, reference compound] the “Solubility in the various kinds” value was “hot-dissolved barely in a high-polar solvent”, the solubility [1] was less than 15 mg/mL and the solubility [2] was less than 15 mg/mL. For the same compound, the solubility [3] was less than 15 mg/mL, the solubility [4] was less than 15 mg/mL and the solubility [5] was greater than 15 mg/mL. It also gave a solubility [6] of less than 15 mg/mL, a solubility [7] of less than 15 mg/mL and a solubility [8] of less than 15 mg/mL. It also gave a solubility [9] of less than 15 mg/mL, a solubility [10] of less than 15 mg/mL and a solubility [11] of less than 15 mg/mL. The solubility [12] was less than 15 mg/mL.

Compound `Nc1cccc(C(=O)Oc2ccc(S(=O)(=O)c3ccc(OC(=O)c4cccc(N)c4)cc3)cc2)c1` [Example 4, bis[4-(3-aminobenzoyloxy)phenyl]sulfone] has a solubility [1] of less than 15 mg/mL, a solubility [2] of less than 15 mg/mL and a solubility [3] of less than 15 mg/mL. It also gave a solubility [4] of less than 15 mg/mL, a solubility [5] greater than 15 mg/mL and a solubility [6] greater than 15 mg/mL. It also gave a solubility [7] of less than 15 mg/mL, a solubility [8] of less than 15 mg/mL and a solubility [9] of less than 15 mg/mL. The solubility [10] was less than 15 mg/mL, the solubility [11] was less than 15 mg/mL and the solubility [12] was greater than 15 mg/mL.

For `Cc1cc(OC(=O)c2cccc(N)c2)c(C)c(C)c1OC(=O)c1cccc(N)c1` [Example 8, 1,2,4-trimethyl-3,6-bis(3-aminobenzoyloxy)benzene], the solubility [1] was greater than 15 mg/mL, the solubility [2] was greater than 15 mg/mL and the solubility [3] was greater than 15 mg/mL. The solubility [4] was greater than 15 mg/mL, the solubility [5] was greater than 15 mg/mL and the solubility [6] was greater than 15 mg/mL. For the same compound, the solubility [7] was greater than 15 mg/mL, the solubility [8] was less than 15 mg/mL and the solubility [9] was less than 15 mg/mL. It also gave a solubility [10] greater than 15 mg/mL, a solubility [11] of less than 15 mg/mL and a solubility [12] greater than 15 mg/mL.

With `Nc1ccc(C(=O)Oc2ccc(OC(=O)c3ccc(N)cc3)cc2)cc1` [Com. Ex. 1, 1,4-bis(4-aminobenzoyloxy)benzene, reference compound] the “Solubility in the various kinds” value was “hot-dissolved only in DMF”, the solubility [1] was less than 15 mg/mL and the solubility [2] was less than 15 mg/mL. The solubility [3] was less than 15 mg/mL, the solubility [4] was less than 15 mg/mL and the solubility [5] was less than 15 mg/mL. For the same compound, the solubility [6] was less than 15 mg/mL, the solubility [7] was less than 15 mg/mL and the solubility [8] was less than 15 mg/mL. The solubility [10] was less than 15 mg/mL, the solubility [11] was less than 15 mg/mL and the solubility [12] was less than 15 mg/mL.
